According to patent publication US20060122137A1, “5'-methylpyrimidine and 2'-O-methyl ribonucleotide modified double-stranded ribonucleic acid molecules” (Nastech Pharmaceutical Company Inc., priority 2003, published 2006):

Legend:
[1] = Thermal melting profiles (Tm) of β-gal siRNA duplexes; format: physicochemical; settings: for Avg. Tm from 1st Exp. / Tm: 1st experiment; for Avg. Tm from 2nd Exp.: 2nd (duplicate) experiment; for melts at a temperature of: text summary of Table 7; for melting temperature higher than the wild type (duplex I): versus duplex I
From the text: The purpose of this experiment was to determine the effect of incorporating ribothymidines in a double stranded RNA molecule in place of uridines on the melting temperature (TM) of the siRNA molecule. A higher Tm correlates with increased siRNA duplex stability.
To determine the effect of replacing uridines with ribothymidines in the siRNA duplex upon melting temperature, thermal melting profiles were generated for four β-galactosidase (β-gal) siRNA molecules (table 5). These four β-gal siRNA duplexes differ only by the presence or absence of ribothymidines in the siRNA duplex. Where rT is 5-methyluridine.
The stock solutions of single stranded oligonucleotides were prepared by dissolving the selected sequences in 400 μL 10 mM buffer phosphate pH 7.0 containing 0.1 M NaCl and 0.1 mM EDTA and diluted (1 μL to 200 μL) with water and absorbencies (A260) were measured and the contents were calculated. Also the integrity of the oligonucleotides was confirmed by HPLC analysis. To prepare the siRNA duplexes, the single stranded oligonucleotides were mixed and allowed to anneal. The UV absorption (A260) for each siRNA duplex was measured and their value are as follows: I (0.28), II (0.54), III (0.31), and IV (0.45). To test for reproducibility, the melting profile study was done in duplicate.
The thermal melting profiles of the duplexes I, II, III and IV were recorded on Shimadzu UV-VIS 1601 with thermoelectrically temperature controlled through the Peltier device. The temperature was changed at the rate of 0.5° C./minute from 90° C. to 25° C. while the absorption recorded at 260 nm. The reverse experiment is also repeated. The “melting” process is a physical phenomenon. Therefore, the generated profile (90° to 25°) ought to be superimposed on the reverse ([…] to 90°).
Differential curves were used to determine the melting point (Tm) of the duplexes. The shape of the curve defined by the derivative of a curve (versus 1/T) was used to make a robust determination of Tm and other thermodynamic data. Shimadzu TMSPC-8 and its associated software performed the needed calculations.

[2] = system: ribonucleases present in rat plasma; assay: Stability of siRNA in rat plasma (PAGE gel, densitometry); format: in vitro ADME; settings: for level of degradation on PAGE gel after treatment with plasma: fresh rat plasma, 37° C., time points 0, 30, 60 and 20 min; for Stability Ranking: rat plasma 37° C.
Description: At various time points (0, 30, 60 and 20 min), 50 μ*l of the mixture was taken out and immediately extracted by phenol:chloroform. SiRNAs were dried following precipitation by adding 2.5 volume of isopropanol alcohol and subsequent washing step with 70% ethanol. After dissolving in water and gel loading buffer the samples were analyzed on 20% polyacrylamide gel, containing 7 M urea and visualized by ethidium bromide staining and quantitated by densitometry.
The purpose of this experiment was to determine whether 2′-O-methyl modified ribonucleotides and the substitution of uridines with ribothymidines (5-methyluridine) provide for greater siRNA stability against rat plasma ribonucleases.
At various time points (0, 30, 60 and 20 min), 50 μl of the mixture was taken out and immediately extracted by phenol:chloroform. siRNAs were dried following precipitation by adding 2.5 volume of isopropanol alcohol and subsequent washing step with 70% ethanol. After resuspending in water and gel loading buffer the samples were analyzed gel electrophoresis on a 20% polyacrylamide gel, containing 7 M urea and subsequently visualized by ethidium bromide staining and quantified by densitometry.

[3] = system: interferon response; assay: Interferon response in vitro; format: cell-based
Description: Interferon responsiveness is a potential side-effect of tranfecting cells with siRNAs. Thus, a study was performed in vitro to assess whether various isoforms of the LC20 siRNA would elicit an interferon response. Both unmodified and modified of the 19-mer LC20 siRNA and 21-mer LC20 siRNA were tested.

| Substance | Avg. Tm from 1st Exp. [1] | Avg. Tm from 2nd Exp. [1] | Tm ([1]; Down profile) | Tm ([1]; Up profile) | level of degradation on PAGE gel after treatment with plasma [2] | melts at a temperature of [1] | melting temperature higher than the wild type (duplex I) [1] | interferon response [3] | Stability Ranking ([2]; LC20 siRNAs (Table 3)) | Stability Ranking ([2]; LC13 siRNAs (Table 4)) |
| --- | --- | --- | --- | --- | --- | --- | --- | --- | --- | --- |
| I (WT): unmodified β-gal siRNA: CUACACAAAUCAGCGAUUU TT / TT GAUGUGUUUAGUCGCUAAA (sense CUACACAAAUCAGCGAUUUTT; antisense TTGAUGUGUUUAGUCGCUAAA; chemistry not fully specified; one strand is listed 3' to 5') [reference compound] | 64.9 °C | 64.9 °C | 65.6 °C | 64.3 °C | begins to degrade almost immediately | – | – | – | – | – |
| II: β-gal siRNA, all uracils in both strands changed to ribothymidine (SEQ ID NO:1/2) (chain 1 CNACACAAANCAGCGANNNTT; chain 2 AAANCGCNGANNNGNGNAGTT; RNA at 1, 2, 3, 4, 5, 6, 7, 8, 9, 10, 11, 12, 13, 14, 15, 16, 17, 18, 19, other sugars, backbone and the base at N not given here; all uracils replaced by ribothymidine in both strands) | 72.35 °C | 72.25 °C | 72.8 °C | 71.9 °C | little to no degradation | about 72.3 °C | 7.4 °C | – | – | – |
| III: β-gal siRNA, rT incorporated in the anti-sense strand only (SEQ ID NO:5/6) (chain 1 CNACACAAANCAGCGANNNTT; chain 2 AAANCGCNGANNNGNGNAGTT; RNA at 1, 2, 3, 4, 5, 6, 7, 8, 9, 10, 11, 12, 13, 14, 15, 16, 17, 18, 19, other sugars, backbone and the base at N not given here; ribothymidine replaces uracil in antisense strand only) | 72.4 °C | 69.8 °C | 72.9 °C | 71.9 °C | – | – | approximately 4.9 °C | – | – | – |
| IV: β-gal siRNA, rT incorporated in the sense strand only (SEQ ID NO:3/4) (chain 1 CTACACAAATCAGCGATTTTT; chain 2 AAAUCGCUGAUUUGUGUAGTT; chain 1: RNA at 2, 10, 17, 18, 19, other sugars and backbone not given here; chain 2: RNA at 4, 8, 11, 12, 13, 15, 17, other sugars and backbone not given here; positions 1-19 ribonucleotides, further chemistry not fully specified) | 67.8 °C | 67.8 °C | 67.8 °C | 67.8 °C | little to no degradation | 67.8 °C | 2.9 °C | – | – | – |
| LC20-19mer: No 3′ overhangs and unmodified: 5′-GGGUCGGAACCCAAGCUUA-3′ / 3′-CCCAGCCUUGGGUUCGAAU-p-5′ (siRNA; 5' phosphate on antisense, chemistry not fully specified; one strand is listed 3' to 5') | – | – | – | – | – | – | – | did not elicit an interferon response | 4 | – |
| LC20-MD23: 5′-GGGT^rCGGAACCCAAGCT^r U^MeOA^MeOdTdT-3′ / 3′-CCCAGCCUUGGGUUCGAAU-p-5′ | – | – | – | – | – | – | – | – | 3 | – |
| LC20-WT: Unmodified: 5′-GGGUCGGAACCCAAGCUUA dTdT-3′ / 3′-dAdT CCCAGCCUUGGGUUCGAAU-p-5′ | – | – | – | – | – | – | – | did not elicit an interferon response | 4 | 4 |
